Reference: PubChem BioAssay (NCI)
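Protocol summary: plate cells (96-well), add compound at 5 concentrations, incubate 48 h, interpolate endpoints linearly. GI50 is the concentration that inhibits growth by half. At the TGI there is no net growth.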

What was measured:
Experiment in all cases: inhibition of tumour cell growth, NCI panel, 48 h
IGROV1 ovarian = tested on: IGROV1 ovarian
SF-539 CNS = tested on: SF-539 CNS
OVCAR-5 ovarian = tested on: OVCAR-5 ovarian
SK-MEL-5 melanoma = tested on: SK-MEL-5 melanoma
SW-620 colon = tested on: SW-620 colon
CCRF-CEM leukemia = tested on: CCRF-CEM leukemia
HCC-2998 colon = tested on: HCC-2998 colon
SF-295 CNS = tested on: SF-295 CNS
HT29 colon = tested on: HT29 colon
A498 renal = tested on: A498 renal
HCT-116 colon = tested on: HCT-116 colon
NCI-H460 lung = tested on: NCI-H460 lung
HOP-92 NSCLC = tested on: HOP-92 NSCLC
PC-3 prostate = tested on: PC-3 prostate
HCT-15 colon = tested on: HCT-15 colon
LOX IMVI melanoma = tested on: LOX IMVI melanoma
EKVX NSCLC = tested on: EKVX NSCLC
SK-MEL-2 melanoma = tested on: SK-MEL-2 melanoma
OVCAR-3 ovarian = tested on: OVCAR-3 ovarian
CAKI-1 renal = tested on: CAKI-1 renal
T-47D breast = tested on: T-47D breast
UACC-62 melanoma = tested on: UACC-62 melanoma
OVCAR-8 ovarian = tested on: OVCAR-8 ovarian
NCI-H522 lung = tested on: NCI-H522 lung
MALME-3M melanoma = tested on: MALME-3M melanoma
MDA-MB-435 = tested on: MDA-MB-435
M14 melanoma = tested on: M14 melanoma
COLO 205 colon = tested on: COLO 205 colon
HS 578T breast = tested on: HS 578T breast
RPMI-8226 leukemia = tested on: RPMI-8226 leukemia
MDA-MB-468 breast = tested on: MDA-MB-468 breast
KM12 colon = tested on: KM12 colon
UACC-257 melanoma = tested on: UACC-257 melanoma
OVCAR-4 ovarian = tested on: OVCAR-4 ovarian
DU-145 prostate = tested on: DU-145 prostate
SK-OV-3 ovarian = tested on: SK-OV-3 ovarian
HL-60(TB) leukemia = tested on: HL-60(TB) leukemia
SN12C renal = tested on: SN12C renal
TK-10 renal = tested on: TK-10 renal
BT-549 breast = tested on: BT-549 breast
SK-MEL-28 melanoma = tested on: SK-MEL-28 melanoma
MCF7 breast = tested on: MCF7 breast
ACHN renal = tested on: ACHN renal
SR leukemia = tested on: SR leukemia
MDA-MB-231 breast = tested on: MDA-MB-231 breast
SF-268 CNS = tested on: SF-268 CNS
K-562 leukemia = tested on: K-562 leukemia
A549 NSCLC = tested on: A549 NSCLC
RXF 393 renal = tested on: RXF 393 renal
UO-31 renal = tested on: UO-31 renal
U251 CNS = tested on: U251 CNS
SNB-75 CNS = tested on: SNB-75 CNS
NCI-H23 lung = tested on: NCI-H23 lung
786-0 renal = tested on: 786-0 renal
MOLT-4 leukemia = tested on: MOLT-4 leukemia
HOP-62 NSCLC = tested on: HOP-62 NSCLC
SNB-19 CNS = tested on: SNB-19 CNS
NCI-H226 lung = tested on: NCI-H226 lung

CC(=O)Nc1cccc(Nc2nc(NCc3ccccc3)c3ccccc3n2)c1
GI50 (IGROV1 ovarian): 3.15 µM
TGI (IGROV1 ovarian): > 10 µM
GI50 (SF-539 CNS): 1.74 µM
TGI (SF-539 CNS): 3.15 µM
GI50 (OVCAR-5 ovarian): 2.08 µM
TGI (OVCAR-5 ovarian): 5.67 µM
GI50 (SK-MEL-5 melanoma): 1.47 µM
TGI (SK-MEL-5 melanoma): 3.12 µM
GI50 (SW-620 colon): 1.83 µM
TGI (SW-620 colon): 3.37 µM
GI50 (CCRF-CEM leukemia): 2.81 µM
TGI (CCRF-CEM leukemia): 7.87 µM
GI50 (HCC-2998 colon): 1.68 µM
TGI (HCC-2998 colon): 3.22 µM
GI50 (SF-295 CNS): 1.66 µM
TGI (SF-295 CNS): 3.05 µM
GI50 (HT29 colon): 1.84 µM
TGI (HT29 colon): 3.82 µM
GI50 (A498 renal): > 10 µM
TGI (A498 renal): > 10 µM
GI50 (HCT-116 colon): 1.66 µM
TGI (HCT-116 colon): 3.16 µM
GI50 (NCI-H460 lung): 1.68 µM
TGI (NCI-H460 lung): 3.3 µM
GI50 (HOP-92 NSCLC): 1.52 µM
TGI (HOP-92 NSCLC): 7.85 µM
GI50 (PC-3 prostate): 2.32 µM
TGI (PC-3 prostate): 8.15 µM
GI50 (HCT-15 colon): 1.76 µM
TGI (HCT-15 colon): 3.45 µM
GI50 (LOX IMVI melanoma): 1.6 µM
TGI (LOX IMVI melanoma): 2.98 µM
GI50 (EKVX NSCLC): 4.01 µM
TGI (EKVX NSCLC): > 10 µM
GI50 (SK-MEL-2 melanoma): 3.41 µM
TGI (SK-MEL-2 melanoma): > 10 µM
GI50 (OVCAR-3 ovarian): 1.74 µM
TGI (OVCAR-3 ovarian): 3.3 µM
GI50 (CAKI-1 renal): 1.82 µM
TGI (CAKI-1 renal): 4.4 µM
GI50 (T-47D breast): 1.65 µM
TGI (T-47D breast): 3.81 µM
GI50 (UACC-62 melanoma): 1.42 µM
TGI (UACC-62 melanoma): 2.74 µM
GI50 (OVCAR-8 ovarian): 2.25 µM
TGI (OVCAR-8 ovarian): 5.17 µM
GI50 (NCI-H522 lung): 1.68 µM
TGI (NCI-H522 lung): 3.24 µM
GI50 (MALME-3M melanoma): 1.48 µM
TGI (MALME-3M melanoma): 2.81 µM
GI50 (MDA-MB-435): 1.7 µM
TGI (MDA-MB-435): 3.26 µM
GI50 (M14 melanoma): 1.66 µM
TGI (M14 melanoma): 3.11 µM
GI50 (COLO 205 colon): 1.9 µM
TGI (COLO 205 colon): 3.53 µM
GI50 (HS 578T breast): 2.16 µM
TGI (HS 578T breast): 5.96 µM
GI50 (RPMI-8226 leukemia): 3.24 µM
TGI (RPMI-8226 leukemia): > 10 µM
GI50 (MDA-MB-468 breast): 1.54 µM
TGI (MDA-MB-468 breast): 3.01 µM
GI50 (KM12 colon): 2.11 µM
TGI (KM12 colon): 4.91 µM
GI50 (UACC-257 melanoma): 1.86 µM
TGI (UACC-257 melanoma): 3.74 µM
GI50 (OVCAR-4 ovarian): 1.79 µM
TGI (OVCAR-4 ovarian): 3.66 µM
GI50 (DU-145 prostate): 5.41 µM
TGI (DU-145 prostate): > 10 µM
GI50 (SK-OV-3 ovarian): > 10 µM
TGI (SK-OV-3 ovarian): > 10 µM
GI50 (HL-60(TB) leukemia): 3.58 µM
TGI (HL-60(TB) leukemia): > 10 µM
GI50 (SN12C renal): > 10 µM
TGI (SN12C renal): > 10 µM
GI50 (TK-10 renal): 3.12 µM
TGI (TK-10 renal): > 10 µM
GI50 (BT-549 breast): > 10 µM
TGI (BT-549 breast): > 10 µM
GI50 (SK-MEL-28 melanoma): 1.61 µM
TGI (SK-MEL-28 melanoma): 3.02 µM
GI50 (MCF7 breast): 1.61 µM
TGI (MCF7 breast): 3.06 µM
GI50 (ACHN renal): 1.77 µM
TGI (ACHN renal): 3.66 µM
GI50 (SR leukemia): 4.05 µM
TGI (SR leukemia): > 10 µM
GI50 (MDA-MB-231 breast): 1.69 µM
TGI (MDA-MB-231 breast): 3.24 µM
GI50 (SF-268 CNS): > 10 µM
TGI (SF-268 CNS): > 10 µM
GI50 (K-562 leukemia): 3.25 µM
TGI (K-562 leukemia): > 10 µM
GI50 (A549 NSCLC): 2.82 µM
TGI (A549 NSCLC): > 10 µM
GI50 (RXF 393 renal): 1.56 µM
TGI (RXF 393 renal): 3.22 µM
GI50 (UO-31 renal): 1.73 µM
TGI (UO-31 renal): 5.41 µM
GI50 (U251 CNS): 1.87 µM
TGI (U251 CNS): 3.93 µM
GI50 (SNB-75 CNS): 1.42 µM
TGI (SNB-75 CNS): 3.51 µM
GI50 (NCI-H23 lung): 2.5 µM
TGI (NCI-H23 lung): 9.11 µM
GI50 (786-0 renal): 1.83 µM
TGI (786-0 renal): 3.87 µM
GI50 (MOLT-4 leukemia): 3.08 µM
TGI (MOLT-4 leukemia): > 10 µM
GI50 (HOP-62 NSCLC): 3.46 µM
TGI (HOP-62 NSCLC): > 10 µM
GI50 (SNB-19 CNS): 2.49 µM
TGI (SNB-19 CNS): 9.38 µM
GI50 (NCI-H226 lung): 1.69 µM
TGI (NCI-H226 lung): 4.15 µM
